# Test results from PubChem BioAssay (NCI).
#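 Test compounds were applied to cells in 96-well plates for 48 hours at 5 doses. GI50 = concentration required for 50% inhibition of growth. The concentration for full growth arrest is given as TGI.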
# Test system: SF-268 CNS
# Assay: NCI-60 cell line screen, 48 h
Structure (SMILES),TGI,GI50
Cn1cc(C2(C)CC(C)(C)c3c2n(C)c2ccccc32)c2ccccc21 (centres undefined),> 100 µM,–
COc1ccc(C(=O)c2cc(OC)c(OC)c(OC)c2)cc1/C=C/C(=O)c1ccc(F)cc1,16.1 µM,3.86 µM
COC(=O)C(Cc1nc2ccccc2[nH]c1=O)C(NO)C(=O)Nc1c(Cl)cc([N+](=O)[O-])cc1Cl (centres undefined),> 100 µM,–
COC(=O)C(CC(=O)Nc1ccc(C)cc1)C(=O)C(=O)Nc1c(C(C)C)cccc1C(C)C (centres undefined),> 100 µM,–
CCOC(=O)C(=O)Nc1ccccc1CC,> 100 µM,–
CN1CCc2nc(N)nc(-c3nc(N)nc4c3CN(C)CC4)c2C1,> 100 µM,–
COc1ccc(-c2cc(-c3cc(C)cc(Br)c3O)no2)cc1,22.8 µM,–
COc1c(C(=O)/C=C/c2ccccc2)c(O)cc2occc12,13.7 µM,4.05 µM
O=C(N/N=C/c1cc(Br)ccc1O)N/N=C/c1cc(Br)ccc1O,> 100 µM,–
CCCN(CCC)C(=O)c1c([N+](=O)[O-])cc(C(F)(F)F)cc1[N+](=O)[O-],> 100 µM,–
COc1cc2[nH]c3c(c2cc1OC)CCN[C@]31CC[C@]2(CC3c4c(cc(OC)c(O)c42)CCN3C)C[C@H]1OC (some centres undefined),68.2 µM,–
c1ccc(C2N3CCCCC3[C@@H]3c4[nH]c5ccccc5c4CCN23)nc1 (some centres undefined),> 100 µM,–
C=CCCCCC/C=C\[C@@H](O)C#CC#C/C=C/CO,> 100 µM,39 µM
COc1ccc(CN2CC(C)(C)C2=O)c(OC)c1,> 100 µM,–
Nc1ccccc1/C(O)=C1/CCOC1=O,> 100 µM,–
CCCCNC1CCCCC[C@H]1O (some centres undefined),> 100 µM,–
[N-]=[N+]=C1C(=O)NN=C1c1ccccc1,> 100 µM,–
CCOC(=O)N[C@@H]1C(CC(=O)OC)O[C@H]2OC(C)(C)O[C@H]21 (some centres undefined),> 100 µM,–
Cc1cc(NC(=S)SCc2ccc(F)cc2)c([N+](=O)[O-])cc1C,> 100 µM,–
C=C(C)CCN[Si](c1ccccc1)(c1ccccc1)C(C)(C)C,98 µM,–
CC12OC(C(=O)C13CC3)C1C(=O)c3ccc4c(ccc5ccccc54)c3C(=O)C12 (centres undefined),86.1 µM,26.5 µM
Cc1cc2ncnn2cc1Nc1ncc2c(n1)n(C1CCOCC1)c(=O)n2C,> 100 µM,6.18 µM
CN(Cc1ccccc1)C(=O)c1ccccc1C(=O)O,> 100 µM,–
CNC(=S)/N=C(\N)N(C)C,> 100 µM,–
CC(=O)C1Cn2c(nc3ccccc32)C[Se]1 (centres undefined),11.5 µM,–
COC(=O)Nc1nc2ccc(C3(c4ccc(F)cc4)OCCO3)cc2[nH]1,> 100 µM,2.07 µM
c1cnn(CN(Cn2cccn2)Cn2cccn2)c1,> 100 µM,–

# Test system: UACC-62 melanoma
# Assay: NCI-60 cell line screen, 48 h
Structure (SMILES),GI50,TGI
CC1(C)C(=O)/C(=C\c2cccnc2)C[C@]2(C)[C@H]3CC[C@@H]4[C@H]5[C@H](C(=O)/C=C/c6cccnc6)CC[C@]5(C(=O)O)CC[C@@]4(C)[C@]3(C)CC[C@@H]12,2.03 µM,4.02 µM
COc1cc2ncnc(-n3ncc4cc(NC(=O)Nc5ccccc5)ccc43)c2cc1OC,1.23 µM,6.27 µM
Cn1cc(C2(C)CC(C)(C)c3c2n(C)c2ccccc32)c2ccccc21 (centres undefined),–,> 100 µM
COc1ccc(C(=O)c2cc(OC)c(OC)c(OC)c2)cc1/C=C/C(=O)c1ccc(F)cc1,2.01 µM,5.52 µM
COC(=O)C(Cc1nc2ccccc2[nH]c1=O)C(NO)C(=O)Nc1c(Cl)cc([N+](=O)[O-])cc1Cl (centres undefined),–,34.5 µM
COC(=O)C(CC(=O)Nc1ccc(C)cc1)C(=O)C(=O)Nc1c(C(C)C)cccc1C(C)C (centres undefined),–,> 100 µM
CCOC(=O)C(=O)Nc1ccccc1CC,–,> 100 µM
CN1CCc2nc(N)nc(-c3nc(N)nc4c3CN(C)CC4)c2C1,–,> 100 µM
COc1ccc(-c2cc(-c3cc(C)cc(Br)c3O)no2)cc1,–,38.9 µM
COc1c(C(=O)/C=C/c2ccccc2)c(O)cc2occc12,4.15 µM,15.1 µM
CCCN(CCC)C(=O)c1c([N+](=O)[O-])cc(C(F)(F)F)cc1[N+](=O)[O-],–,50.1 µM
COc1cc2[nH]c3c(c2cc1OC)CCN[C@]31CC[C@]2(CC3c4c(cc(OC)c(O)c42)CCN3C)C[C@H]1OC (some centres undefined),–,49 µM
c1ccc(C2N3CCCCC3[C@@H]3c4[nH]c5ccccc5c4CCN23)nc1 (some centres undefined),–,> 100 µM
C=CCCCCC/C=C\[C@@H](O)C#CC#C/C=C/CO,> 100 µM,> 100 µM
COc1ccc(CN2CC(C)(C)C2=O)c(OC)c1,–,> 100 µM
Nc1ccccc1/C(O)=C1/CCOC1=O,–,> 100 µM
CCCCNC1CCCCC[C@H]1O (some centres undefined),–,> 100 µM
COc1ccc2c3c([nH]c2c1[N+](=O)[O-])C(C)N(C)CC3 (centres undefined),–,> 100 µM
CCOC(=O)N[C@@H]1C(CC(=O)OC)O[C@H]2OC(C)(C)O[C@H]21 (some centres undefined),–,> 100 µM
Cc1cc(NC(=S)SCc2ccc(F)cc2)c([N+](=O)[O-])cc1C,–,31.3 µM
C=C(C)CCN[Si](c1ccccc1)(c1ccccc1)C(C)(C)C,–,31.9 µM
Cc1cc2ncnn2cc1Nc1ncc2c(n1)n(C1CCOCC1)c(=O)n2C,3.5 µM,29.3 µM
CNC(=S)/N=C(\N)N(C)C,–,> 100 µM
CC(=O)C1Cn2c(nc3ccccc32)C[Se]1 (centres undefined),–,3.64 µM
COC(=O)Nc1nc2ccc(C3(c4ccc(F)cc4)OCCO3)cc2[nH]1,0.619 µM,> 100 µM
c1cnn(CN(Cn2cccn2)Cn2cccn2)c1,–,> 100 µM

# Test system: HCT-15 colon
# Assay: NCI-60 cell line screen, 48 h
Structure (SMILES),GI50,TGI
CC1(C)C(=O)/C(=C\c2cccnc2)C[C@]2(C)[C@H]3CC[C@@H]4[C@H]5[C@H](C(=O)/C=C/c6cccnc6)CC[C@]5(C(=O)O)CC[C@@]4(C)[C@]3(C)CC[C@@H]12,1.76 µM,4.54 µM
COc1cc2ncnc(-n3ncc4cc(NC(=O)Nc5ccccc5)ccc43)c2cc1OC,0.579 µM,11.1 µM
Cn1cc(C2(C)CC(C)(C)c3c2n(C)c2ccccc32)c2ccccc21 (centres undefined),–,> 100 µM
COc1ccc(C(=O)c2cc(OC)c(OC)c(OC)c2)cc1/C=C/C(=O)c1ccc(F)cc1,2.14 µM,6.96 µM
COC(=O)C(Cc1nc2ccccc2[nH]c1=O)C(NO)C(=O)Nc1c(Cl)cc([N+](=O)[O-])cc1Cl (centres undefined),–,> 100 µM
COC(=O)C(CC(=O)Nc1ccc(C)cc1)C(=O)C(=O)Nc1c(C(C)C)cccc1C(C)C (centres undefined),–,> 100 µM
CN1CCc2nc(N)nc(-c3nc(N)nc4c3CN(C)CC4)c2C1,–,> 100 µM
COc1ccc(-c2cc(-c3cc(C)cc(Br)c3O)no2)cc1,–,> 100 µM
COc1c(C(=O)/C=C/c2ccccc2)c(O)cc2occc12,5.25 µM,22.7 µM
CCCN(CCC)C(=O)c1c([N+](=O)[O-])cc(C(F)(F)F)cc1[N+](=O)[O-],–,> 100 µM
COc1cc2[nH]c3c(c2cc1OC)CCN[C@]31CC[C@]2(CC3c4c(cc(OC)c(O)c42)CCN3C)C[C@H]1OC (some centres undefined),–,43.1 µM
c1ccc(C2N3CCCCC3[C@@H]3c4[nH]c5ccccc5c4CCN23)nc1 (some centres undefined),–,> 100 µM
C=CCCCCC/C=C\[C@@H](O)C#CC#C/C=C/CO,> 100 µM,> 100 µM
